IC50 and minimum detection concentration data for 1 compound are collected here from publication PMC9688530, “Development of Ic-ELISA and Colloidal Gold Lateral Flow Immunoassay for the Determination of Cypermethrin in Agricultural Samples” (Biosensors, 2022).

A word on the IC50: it is the midpoint of a concentration-inhibition curve.

Values after ≈ are worked out from the molar mass of the structure shown. Values joined by “and” are separate entries in the source; they are usually repeats but may differ in a detail not shown here. Identical values can stand only once.

One data set relates to anti-CYP mAb 2G9A8. Briefly: homologous ic-ELISA, hapten 1 coating antigen, mAb 2G9A8. It counts as binding, mouse. The conditions noted are these: hapten 1 as coating antigen. How it is done:
(§1) The ic-ELISA procedure was executed according to previous studies. Each well of the ELISA plate was coated with 100 μL of coating antigen diluted with carbonate buffer (0.05 mol/L, pH 9.6) at 4 °C overnight. After washing three times with phosphate-buffered saline (PBS, 0.01 mol/L, pH 7.4) containing 1‰ Tween-20, the wells were blocked with 200 μL of 5% skim milk powder in PBS at 37 °C for two hours. After the same washing procedure, 50 μL of CYP standard solution and 50 μL of mAb were pipetted into each well and incubated at 37 °C for one hour. After washing five times, 100 μL per well of 0.5‰ horseradish peroxidase-labeled goat anti-mouse IgG antibody in PBS was added and incubated at 37 °C for one hour. After the wells were washed five times, 100 μL per well of fresh substrate solution (0.1 mg/mL 3,3′,5,5′-tetramethylbenzidine and 0.024‰ H2O2 in 0.1 M citrate acid buffer) was added to react at 37 °C for 15 min. Then, 50 μL per well of 0.2 mol/L H2SO4 was used to stop the reaction, and the absorbances were read at 450 nm with a microplate reader.
(§2) After five immunizations, the anti-serum of five mice was collected to determine the serum titer. All mouse serum had high titers ranging from 1:64,000 to 1:256,000. […] Then, the sensitivity of these monoclonal antibodies was evaluated by homologous ic-ELISA. […] The subtype of mAb 2G7H9 was determined as IgG2b by a kit. […]
On the technique in general: In an ELISA, binding on a coated surface is turned into a signal by an enzyme label.

A further data set deals with anti-CYP mAb 1E7D5. Briefly: homologous ic-ELISA, hapten 1 coating antigen, mAb 1E7D5. It counts as binding, mouse. The following applies: hapten 1 as coating antigen. Here is the method: as §1, §2
For a further data set, the system named is anti-CYP mAb 6F1G10. Briefly: homologous ic-ELISA, hapten 1 coating antigen, mAb 6F1G10. It counts as binding, mouse. The conditions noted are these: hapten 1 as coating antigen. Here is the method:
as §1, §2

The test system of another data set is antibody against CYP. The arrangement: method as in PMID 26965575. The following applies: cited from earlier work.
On the set-up of data set [1]: method as in doi:10.1016/j.cropro.2009.01.003. The conditions noted are these: cited from earlier work.

For `CC1(C)C(C=C(Cl)Cl)C1C(=O)OC(C#N)c1cccc(Oc2ccccc2)c1` (centres unmarked) [CYP, Cypermethrin], the IC50 in the data set with anti-CYP mAb 2G9A8 was 0.176 µg/mL (≈ 0.423 µM); in the data set on anti-CYP mAb 1E7D5 it was 0.314 µg/mL (≈ 0.754 µM); with anti-CYP mAb 6F1G10, 0.575 µg/mL (≈ 1.38 µM); in the data set with antibody against CYP it was 0.00259 µg/mL and 0.0026 µg/mL. Besides, in data set [1], the minimum detection concentration is given as 800 ng/mL.
